Assays:
[1] = molecular target: T1, GST-tagged RAF-RBD and biotinylated H-Ras loaded with GMPPNP (Homo sapiens, UniProt P01112, G12V); assay: TR-FRET of the interaction between GST-tagged RAF-RBD and biotinylated H-Ras; type: binding; details: 12.5 nM Bio-H-Ras GMPPNP, 10 nM GST-RAF-RBD, FIG. 8C
T1 construct: made in house; host or cells: E. coli BL21 (DE3)
Description: The interaction between GST-tagged RAF-RBD and biotinylated H-Ras (Bio-H-Ras) loaded with GMPPNP was detected using TR-FRET. Assays were performed in 384 well plates (Proxiplate-384 plus, Perkin Elmer, Waltham, Mass.). Bio-H-Ras GMPPNP was diluted in assay buffer (50 mM Tris-HCl, pH 7.5, 5 mM MgCl2, 0.0025% Tween-80, 1 mM DTT, and 50 nM GMPPNP) at a final concentration of 12.5 nM. R4000 was serially diluted in DMSO, then diluted in assay buffer and incubated with Bio-H-Ras GMPPNP for 30 minutes at room temperature (1% DMSO final). GST-RAF-RBD was added to the assay (10 nM final) and incubated 60 minutes at room temperature. Europium cryptate conjugated-anti-GST (donor; Perkin Elmer, Waltham, Mass.) and streptavidin conjugated to SureLight-Allophycocyanin (acceptor; Perkin Elmer, Waltham, Mass.) was added to the wells at final concentrations of 1 nM and 1.25 nM, respectively. Reaction mixtures were incubated at room temperature for 2 hours then detected using an EnVision Multilabel Plate Reader (Perkin Elmer, Waltham, Mass.) with excitation at 340 nm and emission at 615 nm (donor) and 665 nm (acceptor). FRET ratios (615 emission/665 emission) were calculated per well. Data was analyzed using GraphPad Prism, and IC50 values were generated by fitting dose response data to a 4 parameter fit sigmoidal dose response curve. […]

[2] = Compound stability in mouse plasma; type: in vitro ADME; details: serum (method text and assay name say plasma), 37° C., pH 7.4
Description: Compounds were assayed for stability in mouse and rat plasma under the following conditions. Plasma was adjusted to pH 7.4. DMSO stocks at 10 mM concentration were prepared for the test compounds. Aliquots of the DMSO solutions were dosed into 1 mL of plasma, which had been pre-warmed to 37° C., at a final test compound concentration of 10 μM. The vials were kept in a benchtop Thermomixer® (Eppendorf, Hauppauge, N.Y.) for the duration of the experiment. Aliquots (100 μL) were taken at each timepoint and added to a 96-well plate that had been pre-filled with 300 μL of an acetonitrile solution containing mixture of the internal standards (metoprolol, propranalol and warfarin each at 500 ng/mL). Samples were stored at 4° C. until the end of the experiment. After the final timepoint was sampled, the plate was mixed and then centrifuged at 3,000 rpm for 10 minutes. Aliquots of the supernatant were removed and analyzed by LC-HRAMS.

[3] = molecular target: T2, SOS^cat catalyzed nucleotide exchange of H-Ras-GDP (Homo sapiens, UniProt P01112, G12V); assay: SOS-mediated nucleotide exchange (MANT-GMPPNP fluorescence); type: biochemical; details: 25 μM of R4000, 1 μM H-Ras-GDP, 2 μM SOS^cat
T2 construct: made in house; host or cells: E. coli BL21 (DE3)
Description: A sequence encoding the Ras exchanger motif and Cdc25 domains of human guanine nucleotide exchange factor SOS1 (amino acids 564-1049, designated as SOS^cat hereafter) was synthesized at GeneArt (Life Technologies, Carlsbad, Calif.) and subcloned into the pET28a expression vector (Novagen, Darmstadt, Germany) for expression in E. coli. The identity of the expression construct was confirmed by DNA sequencing. The plasmid encoding SOS^cat was transformed into BL21 (DE3). Cells were grown at 37° C. to an absorbance of 0.5 (OD600) in LB media containing 25 μg/mL of kanamycin and then transferred to 20° C. prior to induction with 0.1 mM IPTG. Cells were harvested 15 hours after induction and the pellet was lysed with B-PER Bacteria Extraction Reagent (Pierce/Thermo Scientific, Rockford, Ill.) containing EDTA-free protease inhibitors. […]
The SOS^cat protein was then dialysed into a buffer containing 25 mM Tris-HCl, pH 7.5, 150 mM NaCl, 5 mM MgCl2, and 1 mM DTT and stored at −80° C. […] Changes in fluorescence were measured by a fluorescence spectrometer (SpectraMax M3; Molecular Devices) in a black 96 half-area well plate (Corning 3686). Fluorescence was excited at λ=370 nm and emission was monitored at λ=450 nm every 20 s for over 30 minutes at 22° C. The nucleotide exchange rates were expressed as Vmax (milli-units per minute).

CCC[C@H](NC(C)=O)C(=O)N[C@H]1CSCc2cccc(c2)CSC[C@@H](C(N)=O)NC(=O)CN(C)C(=O)[C@H](Cc2ccc(F)cc2)N(C)C(=O)[C@H](Cc2ccc(O)cc2)NC(=O)[C@H](Cc2c[nH]c3ncccc23)NC(=O)[C@H](c2ccccc2)NC(=O)[C@H](C)N(C)C(=O)[C@H](Cc2cnc[nH]2)NC(=O)[C@H](CCCCN)NC(=O)[C@H](C(C)(C)C)NC(=O)[C@H](Cc2ccc(O)cc2)NC1=O (relative stereo) [Compound R4000, ACE-NVA-CYS*-TYR-TBG-LYS-HIS-NMA-PHG-7AW-TYR-MFF-SAR-CYS*-NH2]
blocking of H-Ras binding to RAF [1]: does not block binding to RAF
half-life at 10 μM [2]: 300 min
effect on the rate of SOS catalyzed nucleotide exchange [3]: does not effect the rate of exchange
